{
  "source": "patent US20090155209A1",
  "about": "“NOVEL MACROCYCLIC INHIBITORS OF HEPATITIS C VIRUS REPLICATION” (priority 2007, published 2009)",
  "assay": "Single ascending dose study, fasted and fed: safety and non-compartmental plasma PK",
  "type": "in vivo, healthy volunteers (human)",
  "conditions": "for median percentage change in AUC0-inf between the fasted and fed conditions: 10 subjects",
  "method": "A single ascending dose (SAD) study of the compound 100 was conducted in healthy volunteers. The compound 100 was administered as monotherapy both with and without food. The safety and pharmacokinetic profile of the single dose of the compound 100 was assessed.\nInterim, blinded data were used for Pharmacokinetic (PK) study relating to food effects. With the exception of the 400 mg cohort, eight subjects were studied at each dose (single doses of 100, 200, or 800 mg of the sodium salt of the compound 100, which may be referred to herein as ITMN-191, administered in the fasting state). In the 400 mg cohort, ten subjects received single 400 mg doses of ITMN-191 under both fasted and fed conditions with a 5-day washout period between dosing. In the 100 mg cohort, subjects were sampled within 1 hour before dosing and at 0.5, 1, 1.5, 2, 2.5, 3, 4, 6, 8, 12, 18, 24, 32 and 48 hours after dosing. For subsequent cohorts, subjects were sampled within 1 hour before dosing and at 0.25, 0.5, 1, 1.5, 2, 2.5, 3, 4, 6, 8, 12, 18, 24, and 32 hours after dosing. Nominal (not actual) sampling times were used for the analysis. PK samples were analyzed using liquid chromatography-tandem mass spectrometry (LC/MS/MS with API 4000 mass spectrometer) following solid-phase extraction. The upper and lower limits of quantitation (ULOQ and LLOQ) are 100 and 0.01 ng/mL, respectively.\nPharmacokinetic parameter estimates were calculated using non-compartmental methods (implemented using Microsoft Excel®). Half-lives were determined by visual inspection of the log concentration-time plots to choose the terminal phase (minimum of three detectable observations). Using linear regression of the chosen terminal phase observations, elimination rate constants were calculated as the negative slope of the regression line and half-life as the natural log of 2 divided by the elimination rate constant.\nTen subjects received single 1600 mg doses of ITMN-191 under both fasted and fed conditions with a 5-day washout period between dosing. For each condition, subjects were sampled within 1 hour before dosing and at 0.25, 0.5, 1, 1.5, 2, 2.5, 3, 4, 6, 8, 12, 18, 24, and 32 hours after dosing. Pharmacokinetic parameter estimates were calculated using non-compartmental methods. Half-life (t1/2) was determined by visual inspection of the log concentration-time plots to choose the terminal phase (minimum of three detectable observations). Using linear regression of the chosen terminal phase observations, elimination rate constants were calculated as the negative slope and half-life as the natural log of 2 divided by the elimination rate constant.",
  "key": {"[1]": {"conditions": "individual subjects, single 1600 mg dose, Fasted"}, "[2]": {"conditions": "individual subjects, single 1600 mg dose, Fed"}},
  "note": "Where “and” joins values, the source holds several entries; their conditions need not be identical. Equal entries are not always repeated. Where two headings read alike, the source gives them in different places.",
  "data": [
    {"smiles": "CC(C)(C)OC(=O)N[C@H]1CCCCC/C=C\\[C@@H]2C[C@@]2(C(=O)NS(=O)(=O)C2CC2)NC(=O)[C@@H]2C[C@@H](OC(=O)N3Cc4cccc(F)c4C3)CN2C1=O", "note": "[ITMN-191]", "values": [
      {"measurement": "AUC0-inf", "setting": "human, plasma, oral, 1600 mg, Geometric Mean of 10 subjects, single 1600 mg dose, Fed, read-out: AUC0-inf", "value": 1010, "unit": "ng·h/mL"},
      {"measurement": "Cmax", "setting": "human, plasma, oral, 1600 mg, Geometric Mean of 10 subjects, single 1600 mg dose, Fed, read-out: Cmax", "value": 422, "unit": "ng/mL"},
      {"measurement": "half-life", "setting": "human, plasma, oral, 1600 mg, Geometric Mean of 10 subjects, single 1600 mg dose, Fed, read-out: t½ (converted)", "value": 150, "unit": "min"},
      {"measurement": "AUC0-inf", "setting": "human, plasma, oral, 1600 mg, Harmonic Mean of 10 subjects, single 1600 mg dose, Fasted, read-out: AUC0-inf", "value": 639, "unit": "ng·h/mL"},
      {"measurement": "Cmax", "setting": "human, plasma, oral, 1600 mg, Harmonic Mean of 10 subjects, single 1600 mg dose, Fasted, read-out: Cmax", "value": 453, "unit": "ng/mL"},
      {"measurement": "half-life", "setting": "human, plasma, oral, 1600 mg, Harmonic Mean of 10 subjects, single 1600 mg dose, Fasted, read-out: t½ (converted)", "value": 137, "unit": "min"},
      {"measurement": "AUC0-inf", "setting": "human, plasma, oral, 1600 mg, Harmonic Mean of 10 subjects, single 1600 mg dose, Fed, read-out: AUC0-inf", "value": 949, "unit": "ng·h/mL"},
      {"measurement": "Cmax", "setting": "human, plasma, oral, 1600 mg, Harmonic Mean of 10 subjects, single 1600 mg dose, Fed, read-out: Cmax", "value": 326, "unit": "ng/mL"},
      {"measurement": "half-life", "setting": "human, plasma, oral, 1600 mg, Harmonic Mean of 10 subjects, single 1600 mg dose, Fed, read-out: t½ (converted)", "value": 146, "unit": "min"},
      {"measurement": "AUC0-inf", "setting": "human, plasma, oral, 1600 mg, Mean of 10 subjects, single 1600 mg dose, Fasted, read-out: AUC0-inf", "value": 691, "unit": "ng·h/mL"},
      {"measurement": "Cmax", "setting": "human, plasma, oral, 1600 mg, Mean of 10 subjects, single 1600 mg dose, Fasted, read-out: Cmax", "value": 622, "unit": "ng/mL"},
      {"measurement": "half-life", "setting": "human, plasma, oral, 1600 mg, Mean of 10 subjects, single 1600 mg dose, Fasted, read-out: t½ (converted)", "value": 149, "unit": "min"},
      {"measurement": "AUC0-inf", "setting": "human, plasma, oral, 1600 mg, Mean of 10 subjects, single 1600 mg dose, Fed, read-out: AUC0-inf", "value": 1070, "unit": "ng·h/mL"},
      {"measurement": "Cmax", "setting": "human, plasma, oral, 1600 mg, Mean of 10 subjects, single 1600 mg dose, Fed, read-out: Cmax", "value": 528, "unit": "ng/mL"},
      {"measurement": "half-life", "setting": "human, plasma, oral, 1600 mg, Mean of 10 subjects, single 1600 mg dose, Fed, read-out: t½ (converted)", "value": 154, "unit": "min"},
      {"measurement": "AUC0-inf", "setting": "human, plasma, oral, 1600 mg, Median of 10 subjects, single 1600 mg dose, Fasted, read-out: AUC0-inf", "value": 737, "unit": "ng·h/mL"},
      {"measurement": "Cmax", "setting": "human, plasma, oral, 1600 mg, Median of 10 subjects, single 1600 mg dose, Fasted, read-out: Cmax", "value": 685, "unit": "ng/mL"},
      {"measurement": "Tmax", "setting": "human, plasma, oral, 1600 mg, Median of 10 subjects, single 1600 mg dose, Fasted, read-out: Tmax", "value": 0.5, "unit": "h"},
      {"measurement": "half-life", "setting": "human, plasma, oral, 1600 mg, Median of 10 subjects, single 1600 mg dose, Fasted, read-out: t½ (converted)", "value": 133, "unit": "min"},
      {"measurement": "AUC0-inf", "setting": "human, plasma, oral, 1600 mg, Median of 10 subjects, single 1600 mg dose, Fed, read-out: AUC0-inf", "value": 1120, "unit": "ng·h/mL"},
      {"measurement": "Cmax", "setting": "human, plasma, oral, 1600 mg, Median of 10 subjects, single 1600 mg dose, Fed, read-out: Cmax", "value": 449, "unit": "ng/mL"},
      {"measurement": "Tmax", "setting": "human, plasma, oral, 1600 mg, Median of 10 subjects, single 1600 mg dose, Fed, read-out: Tmax", "value": 1.75, "unit": "h"},
      {"measurement": "half-life", "setting": "human, plasma, oral, 1600 mg, Median of 10 subjects, single 1600 mg dose, Fed, read-out: t½ (converted)", "value": 158, "unit": "min"},
      {"measurement": "half-life", "setting": "human, plasma, oral, 1600 mg, individual subjects, single 1600 mg dose, Fed, read-out: t½ (converted)", "value": 180, "unit": "min"},
      {"measurement": "half-life", "setting": "human, plasma, oral, in most subjects, read-out: terminal half-life", "value": "60 to 120", "unit": "min"},
      {"measurement": "AUC0-inf", "setting": "[1]", "value": "890 ng·h/mL and 360 ng·h/mL and 529 ng·h/mL and 507 ng·h/mL and 907 ng·h/mL and 809 ng·h/mL and 753 ng·h/mL and 652 ng·h/mL and 720 ng·h/mL and 779 ng·h/mL"},
      {"measurement": "Cmax", "setting": "[1]", "value": "892 ng/mL and 225 ng/mL and 548 ng/mL and 214 ng/mL and 1000 ng/mL and 860 ng/mL and 305 ng/mL and 909 ng/mL and 822 ng/mL and 442 ng/mL"},
      {"measurement": "AUC0-inf", "setting": "[2]", "value": "1895 ng·h/mL and 583 ng·h/mL and 939 ng·h/mL and 1116 ng·h/mL and 1225 ng·h/mL and 1209 ng·h/mL and 806 ng·h/mL and 1133 ng·h/mL and 1174 ng·h/mL"},
      {"measurement": "Cmax", "setting": "[2]", "value": "1510 ng/mL and 381 ng/mL and 199 ng/mL and 100 ng/mL and 444 ng/mL and 592 ng/mL and 454 ng/mL and 346 ng/mL and 760 ng/mL and 493 ng/mL"},
      {"measurement": "Tmax", "setting": "[2]", "value": "1.5 h and 4 h and 2 h"},
      {"measurement": "t½", "setting": "[2]", "value": "2.01 h and 2.65 h and 1.80 h and 3.35 h and 2.16 h and 2.63 h and 1.82 h and 2.70 h and 3.48 h"},
      {"measurement": "subjects with an increase in AUC0-inf under fed conditions", "setting": "single 400 mg dose", "value": "8 of 10"},
      {"measurement": "median percentage change in AUC0-inf between the fasted and fed conditions", "setting": "single 400 mg dose", "value": 26, "unit": "%"},
      {"measurement": "subjects with an increase in AUC0-inf under fed conditions", "setting": "single 1600 mg dose", "value": "10 of 10"},
      {"measurement": "median percentage change in AUC0-inf between the fasted and fed conditions", "setting": "single 1600 mg dose", "value": 54, "unit": "%"}
    ]}
  ]
}
